Assay type in all cases: functional
One assay has as its target T1, Progesterone receptor (Homo sapiens, UniProt P06401).
T1 sequence (P06401 whole entry): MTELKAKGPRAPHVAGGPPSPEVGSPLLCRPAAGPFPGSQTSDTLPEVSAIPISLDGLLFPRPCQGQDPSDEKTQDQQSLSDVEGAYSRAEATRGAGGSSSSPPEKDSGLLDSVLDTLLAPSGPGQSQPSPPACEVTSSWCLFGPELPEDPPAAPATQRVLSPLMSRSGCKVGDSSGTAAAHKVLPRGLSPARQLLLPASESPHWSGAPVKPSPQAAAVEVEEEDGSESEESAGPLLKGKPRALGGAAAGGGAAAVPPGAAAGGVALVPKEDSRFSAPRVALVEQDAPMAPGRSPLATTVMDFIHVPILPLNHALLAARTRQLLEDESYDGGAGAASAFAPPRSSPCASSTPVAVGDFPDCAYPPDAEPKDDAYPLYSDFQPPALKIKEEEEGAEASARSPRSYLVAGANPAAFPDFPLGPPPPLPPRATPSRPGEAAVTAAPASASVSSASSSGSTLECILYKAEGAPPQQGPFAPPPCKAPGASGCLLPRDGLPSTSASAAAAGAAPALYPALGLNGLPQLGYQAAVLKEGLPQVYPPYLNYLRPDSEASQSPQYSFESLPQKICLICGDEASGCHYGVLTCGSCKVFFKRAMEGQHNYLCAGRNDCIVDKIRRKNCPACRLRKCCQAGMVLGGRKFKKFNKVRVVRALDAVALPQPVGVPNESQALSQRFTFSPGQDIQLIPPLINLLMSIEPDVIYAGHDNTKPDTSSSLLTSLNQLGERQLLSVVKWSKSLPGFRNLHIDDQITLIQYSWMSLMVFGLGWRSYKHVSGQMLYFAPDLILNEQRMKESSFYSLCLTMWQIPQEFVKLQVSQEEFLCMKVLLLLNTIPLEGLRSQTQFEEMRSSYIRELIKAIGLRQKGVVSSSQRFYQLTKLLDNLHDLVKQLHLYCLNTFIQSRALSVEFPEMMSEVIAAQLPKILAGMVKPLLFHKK
The assay is described as follows: Antagonist activity at progesterone receptor by cellular reporter gene assay. (Reporter assays use an easily measured gene product as a stand-in for the process of interest.)

Assay [1] has as its target T2, Androgen receptor (Homo sapiens) (UniProt P10275).
T2 sequence (whole entry): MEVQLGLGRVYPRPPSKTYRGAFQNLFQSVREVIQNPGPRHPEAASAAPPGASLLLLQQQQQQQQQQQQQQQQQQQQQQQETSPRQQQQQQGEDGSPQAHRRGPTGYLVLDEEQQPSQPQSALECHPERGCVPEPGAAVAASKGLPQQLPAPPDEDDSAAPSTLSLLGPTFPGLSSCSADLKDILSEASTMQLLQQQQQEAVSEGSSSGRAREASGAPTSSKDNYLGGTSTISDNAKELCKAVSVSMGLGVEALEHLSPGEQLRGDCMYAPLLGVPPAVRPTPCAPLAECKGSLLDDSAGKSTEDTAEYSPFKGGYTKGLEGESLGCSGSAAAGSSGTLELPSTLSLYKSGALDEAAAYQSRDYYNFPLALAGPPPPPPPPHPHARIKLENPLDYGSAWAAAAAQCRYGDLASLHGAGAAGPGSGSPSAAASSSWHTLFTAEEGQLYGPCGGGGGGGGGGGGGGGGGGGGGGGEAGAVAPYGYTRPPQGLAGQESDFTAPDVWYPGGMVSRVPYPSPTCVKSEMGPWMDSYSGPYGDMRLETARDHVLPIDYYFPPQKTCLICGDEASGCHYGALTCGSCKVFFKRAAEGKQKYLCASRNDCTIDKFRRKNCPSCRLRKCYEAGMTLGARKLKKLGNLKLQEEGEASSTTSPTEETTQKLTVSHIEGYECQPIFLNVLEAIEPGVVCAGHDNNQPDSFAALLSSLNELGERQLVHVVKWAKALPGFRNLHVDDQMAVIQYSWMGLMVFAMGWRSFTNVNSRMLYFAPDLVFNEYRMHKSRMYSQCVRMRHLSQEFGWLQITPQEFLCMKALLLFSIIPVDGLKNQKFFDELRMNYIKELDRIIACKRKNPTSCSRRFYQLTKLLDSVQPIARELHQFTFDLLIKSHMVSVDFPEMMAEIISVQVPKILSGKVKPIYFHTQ
The experiment in a line: Agonist activity at androgen receptor by cellular reporter gene assay.

For assay [2], the target named is T3, Mineralocorticoid receptor (Homo sapiens) (UniProt P08235).
T3 sequence (whole entry): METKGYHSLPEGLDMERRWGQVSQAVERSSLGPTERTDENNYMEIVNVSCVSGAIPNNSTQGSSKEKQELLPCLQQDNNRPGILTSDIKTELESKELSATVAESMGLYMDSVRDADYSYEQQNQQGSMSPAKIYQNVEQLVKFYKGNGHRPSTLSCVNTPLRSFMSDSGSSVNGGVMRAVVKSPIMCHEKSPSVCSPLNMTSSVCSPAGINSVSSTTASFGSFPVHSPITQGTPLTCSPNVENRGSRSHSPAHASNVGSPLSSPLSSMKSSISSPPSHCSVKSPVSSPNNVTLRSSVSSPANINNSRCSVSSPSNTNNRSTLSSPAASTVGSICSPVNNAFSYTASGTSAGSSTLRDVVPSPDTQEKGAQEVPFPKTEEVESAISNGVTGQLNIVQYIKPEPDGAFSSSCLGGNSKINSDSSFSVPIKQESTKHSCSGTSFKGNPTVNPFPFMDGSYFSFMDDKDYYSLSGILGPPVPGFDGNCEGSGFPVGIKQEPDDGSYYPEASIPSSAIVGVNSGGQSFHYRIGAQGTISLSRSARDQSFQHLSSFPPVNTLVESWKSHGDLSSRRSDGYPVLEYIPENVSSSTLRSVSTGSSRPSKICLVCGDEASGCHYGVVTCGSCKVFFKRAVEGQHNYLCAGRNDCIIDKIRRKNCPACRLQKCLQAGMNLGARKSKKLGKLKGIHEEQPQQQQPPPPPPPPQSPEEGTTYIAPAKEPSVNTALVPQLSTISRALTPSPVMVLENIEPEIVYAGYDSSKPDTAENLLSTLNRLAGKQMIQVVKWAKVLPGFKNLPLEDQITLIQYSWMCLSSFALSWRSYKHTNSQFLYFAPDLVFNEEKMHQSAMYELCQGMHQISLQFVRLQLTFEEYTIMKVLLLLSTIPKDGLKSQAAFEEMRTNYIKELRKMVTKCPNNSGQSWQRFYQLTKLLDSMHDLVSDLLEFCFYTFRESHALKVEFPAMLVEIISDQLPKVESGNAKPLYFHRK
The experiment in a line: Agonist activity at mineralocorticoid receptor by cellular reporter gene assay.

Active and inactive are the calls of the source. No cut-off for these calls is given here.

Regarding `CCS(=O)(=O)Nc1cc(F)c(-c2ccc(C#N)n2C)c(F)c1`, on Progesterone receptor, the IC50 – broadly, the concentration that gives 50% inhibition – amounted to 11.7 nM. Besides, the outcome in assay [1] and in assay [2] was inactive.

Take `COC[C@]1(OC)CC[C@H]2[C@@H]3CCC4=CC(=O)CCC4=C3[C@@H](c3ccc(/C=N/O)cc3)C[C@@]21C` [ASOPRISNIL]: half-maximal inhibition on Progesterone receptor (IC50) was put at 0.3 nM. In addition, the outcome in assay [1] and in assay [2] was inactive.
